Experimental data from publication PMC8603191, “Fragment-based design of selective GPCR ligands guided by free energy simulations” (Chemical communications (Cambridge, England), 2021).
Where “and” joins values, the source holds several entries; their conditions need not be identical. Equal values may be shown once. Entries after “also recorded” stand apart in the source; their conditions may differ.

Key:
hA1AR [1] = experiment: Ki values of known ligands downloaded from the ChEMBL database; assay type: binding, human; conditions: from ChEMBL Ki values hA1AR and hA2AAR
Source text: Table S5. Highest affinity human A1AR ligands (with < 20 HA) in the ChEMBL database compared to compound 22.a […]
a Known A1AR and A2AAR ligands with determined Ki values were downloaded from the ChEMBL database.
Compounds with motifs found in pan-assay interference compounds16 were excluded using OpenEye Toolkits 2020.2.0 OpenEye Scientific Software, Santa Fe, NM. http://www.eyesopen.com.

hA1AR [2] = molecular target: hA1AR; set-up: method as in ChEMBL database; conditions: ligands with < 20 HA; ref ChEMBL database; cited from earlier work
hA2AAR = molecular target: hA2AAR; set-up: method as in ChEMBL database; conditions: ligands with < 20 HA; ref ChEMBL database; cited from earlier work
human A2AAR [3] = molecular target: T1, human A2AAR (Homo sapiens, UniProt P29274); experiment: Radioligand binding assay, displacement of [3H]ZM241385; conditions: for Free energy of binding (ΔG) A2AAR: calculated from experimental binding affinities; for ΔΔG Experimental A2AAR: based on Table S3
T1 construct: expressed in transfected cells; host or cells: HEK293 (membrane preparations)
Protocol: (§1) Radioligand binding assays. HEK293 cells expressing the human A1- or A2AARs were cultured in DMEM supplemented with 10% fetal bovine serum, 100 Units/ml penicillin, 100 µg/ml streptomycin, and 2 µmol/ml glutamine. Cells were detached from plates by scraping into cold PBS and centrifuged at 250 g for 5 min. The pellets were resuspended in ice-cold Tris HCl buffer (50 mM, pH 7.4) and then homogenized. After homogenization and suspension, cells were centrifuged at 1000 g for 10 min, and the pellet was discarded.
(§2) The suspension was then re-centrifuged at 20,000 g for 60 min at 4 °C. The pellets were resuspended in buffer containing 3 Units/ml adenosine deaminase and incubated at 37°C for 30 min. The aliquots of membrane preparations were stored at −80°C until the binding experiments. For displacement binding assays, membrane preparations (20 µg proteins/tube) were incubated at 25°C for 60 min with a final concentration of [3H]DPCPX (0.5 nM) and [3H]ZM241385 (1.0 nM) for A1- and A2AARs, respectively, in a mixture containing 50 µL of increasing concentrations of a test ligand in a total assay volume of 200 µL of 50 mM Tris HCl, pH 7.4, containing 10 mM MgCl2. Nonspecific binding was determined using 100 µM of XAC. The reaction was terminated by filtration with GF/B filters using a Brandel 24-channel harvester. Filters were placed in scintillation vials containing 5 ml of Hydrofluor scintillation buffer and counted using a PerkinElmer Tricarb 2810TR liquid scintillation counter. […]
(§3) Table S1. Binding affinities of compounds 1-10 based on displacement of [3H]DPCPX and [3H]ZM241385 at the A1AR and A2AAR, respectively.
(§4) Compound Substituent A1AR A2AAR index […]
(§5) a Ki values are expressed as means ± SEM from (2-4) independent experiments. b Free energy of binding (ΔG) calculated from experimental binding affinities (kcal/mol) / Number of heavy atoms (HA). The ligand efficiency (LE) = −ΔG/HA. c Values from Matricon et al.8
(§6) Table S3. Binding affinities of compounds 11-26 based on displacement of [3H]DPCPX and […]
(§7) a K values are expressed as means ± SEM from (2-4) independent experiments.
(§8) Free energy of binding (ΔG) calculated from experimental binding affinities (kcal/mol) / Number of heavy

human A1AR [4] = molecular target: T2, human A1AR (Homo sapiens, UniProt P30542); experiment: cAMP functional assay; assay type: cell-based; conditions: HEK293 cells, intracellular cAMP, n=3
T2 construct: expressed in transfected cells; host or cells: HEK293 (membrane preparations)
T2 sequence (P30542 1-326): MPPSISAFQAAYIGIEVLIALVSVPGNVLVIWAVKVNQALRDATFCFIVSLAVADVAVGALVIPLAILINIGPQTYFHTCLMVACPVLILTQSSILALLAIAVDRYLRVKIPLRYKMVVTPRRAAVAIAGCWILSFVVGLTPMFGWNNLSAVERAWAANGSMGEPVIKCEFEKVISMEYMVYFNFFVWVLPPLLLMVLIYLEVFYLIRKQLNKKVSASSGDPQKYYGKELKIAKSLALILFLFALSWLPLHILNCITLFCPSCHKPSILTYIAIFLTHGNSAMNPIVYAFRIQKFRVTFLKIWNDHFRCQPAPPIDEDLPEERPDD
Protocol: (§9) Functional assays measuring intracellular concentrations of cAMP were performed at the human A1AR and A2AAR to determine the efficacy of compounds 22 and 26. […]
cAMP assay. HEK293 cells were grown in DMEM supplemented with 10% fetal bovine serum, 100 Units/ml penicillin, 100 µg/ml streptomycin, and 2 µmol/ml glutamine. After 24 hours, cells were treated with assay buffer containing rolipram (10 µM), PSB603 (1 µM) and adenosine deaminase (3 units/ml) for 30 min followed by the addition of antagonists for 20 min and subsequent addition of agonists and incubated for another 20 min. For the A1AR assay, after incubation with agonist for 20 min, forskolin (10 µM) was added and incubated for an additional 15 min. The reaction was terminated upon removal of the supernatant, and addition of 100 µl Tween-20 (0.3%). Intracellular cAMP levels […]
(§10) were measured with an ALPHAScreen cAMP assay kit following the instructions from the manufacturer (PerkinElmer).

human A1AR [5] = experiment: Radioligand binding assay, displacement of [3H]DPCPX; conditions: A1AR versus A2AAR; for A1AR selectivity index: from Ki values
Protocol: as §1, §2, §3, §4, §5, §6, §7, §8

human A1AR [6] = molecular target: T2, human A1AR; experiment: as above; conditions: for Free energy of binding (ΔG) A1AR: calculated from experimental binding affinities; for ΔΔG Experimental A1AR: based on Table S3
Protocol: as §1, §2, §3, §4, §5, §6, §7, §8

human A2AAR [7] = molecular target: T1, human A2AAR; experiment: cAMP functional assay; assay type: cell-based; conditions: HEK293 cells, intracellular cAMP, n=3
Protocol: as §9
cAMP assay. HEK293 cells were grown in DMEM supplemented with 10% fetal bovine serum, 100 Units/ml penicillin, 100 µg/ml streptomycin, and 2 µmol/ml glutamine. After 24 hours, cells were treated with assay buffer containing rolipram (10 µM), PSB603 (1 […]
The reaction was terminated upon removal of the supernatant, and addition of 100 µl Tween-20 (0.3%). Intracellular cAMP levels […]
as §10

[8] = displacement of [3H]ZM241385, means ± SEM from 2-4 independent experiments
[9] = displacement of [3H]DPCPX, means ± SEM from 2-4 independent experiments

T1 sequence (P29274 whole entry): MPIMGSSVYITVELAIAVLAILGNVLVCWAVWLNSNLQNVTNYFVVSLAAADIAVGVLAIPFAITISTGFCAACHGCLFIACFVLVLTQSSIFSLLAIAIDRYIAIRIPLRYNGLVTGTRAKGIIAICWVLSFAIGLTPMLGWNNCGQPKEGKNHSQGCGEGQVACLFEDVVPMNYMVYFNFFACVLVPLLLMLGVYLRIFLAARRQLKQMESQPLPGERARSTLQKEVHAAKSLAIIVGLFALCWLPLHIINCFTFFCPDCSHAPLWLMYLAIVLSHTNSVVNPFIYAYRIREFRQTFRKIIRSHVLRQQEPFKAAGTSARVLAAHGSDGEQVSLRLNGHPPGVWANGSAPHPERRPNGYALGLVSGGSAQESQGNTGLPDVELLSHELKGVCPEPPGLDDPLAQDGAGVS

Row | A1AR selectivity (hA1AR [1]) | Free energy of binding (ΔG) A2AAR (human A2AAR [3]) [kcal/mol] | A1AR selectivity index (human A1AR [5]) | Free energy of binding (ΔG) A1AR (human A1AR [6]) [kcal/mol] | Compound | Ki (hA1AR [2]) [nM] | Ki (hA2AAR) [nM] | also measured
1 | 6.8 | – | – | – | Cc1nc(N)c2nc(-n3nccn3)n(C)c2n1 [CHEMBL194290] | 10.4 | 70.4 | –
2 | 115.7 | – | – | – | Cn1c(-n2nccn2)nc2c(N)ncnc21 [CHEMBL194728] | 0.4 | 46.3 | –
3 | 2.0 | – | – | – | Nc1nc2ccccc2n2nc(-c3ccco3)nc12 [CHEMBL261345] | 5.6 | 11.2 | –
4 | – | – | – | – | Oc1nc2ccccc2n2nc(-c3cccs3)nc12 [CHEMBL328437] | 2 | – | –
5 | 0.4 | – | – | – | Cn1ncc2nc(N)n3nc(-c4ccco4)nc3c21 [CHEMBL1935752] | 10 | 3.6 | –
6 | – | -8.8 | 38.4 | -11.0 | CC1(C(=O)Nc2nc3cc(Br)ccc3s2)CCCC1 [Compound 22] | – | – | Ki (human A2AAR [3]; [8]): 384 ± 82 nM; ΔΔG Experimental A2AAR (human A2AAR [3]; reference compound 9): –0.8 ± 0.1 kcal/mol; efficacy in cAMP assay at A1AR (human A1AR [4]): antagonists; also recorded: Antagonism; selectivity for the A1AR (human A1AR [5]; Fig. 1): 38 fold; improvement of A1AR affinity (human A1AR [6]; compared to compound 1): > 1000 fold; Ki (human A1AR [6]; radioligand binding, Fig. 1, Table S5): 10 nM; ΔΔG Experimental A1AR (human A1AR [6]; reference compound 9): –2.4 ± 0.1 kcal/mol; efficacy in cAMP assay at A2AAR (human A2AAR [7]): antagonists; also recorded: Antagonism
7 | – | -7.9 | 27.8 | -9.9 | CC1(C(=O)Nc2nc3cc(C#N)ccc3s2)CCCC1 [Compound 25] | – | – | Ki (human A2AAR [3]; [8]): 1780 ± 740 nM; ΔΔG Experimental A2AAR (human A2AAR [3]; reference compound 9): 0.1 ± 0.3 kcal/mol; Ki (human A1AR [6]; [9]): 64 ± 6 nM; ΔΔG Experimental A1AR (human A1AR [6]; reference compound 9): –1.3 ± 0.1 kcal/mol
8 | – | -9.6 | 0.1 | -8.1 | COc1cccc2sc(NC(=O)c3ccccc3)nc12 [Compound 26] | – | – | A2AAR selectivity (human A2AAR [3]; A2AAR versus A1AR): 13 fold; Ki (human A2AAR [3]; radioligand binding, Table S5): 106 nM; ΔΔG Experimental A2AAR (human A2AAR [3]; reference compound 10): –0.8 ± 0.1 kcal/mol; efficacy in cAMP assay at A1AR (human A1AR [4]): antagonists; also recorded: Antagonism; Ki (human A1AR [6]; [9]): 1330 nM and 1300 nM; ΔΔG Experimental A1AR (human A1AR [6]; reference compound 10): 0.4 ± 0.3 kcal/mol; efficacy in cAMP assay at A2AAR (human A2AAR [7]): antagonists; also recorded: Antagonism
